Where “and” joins values, the source holds several entries; their conditions need not be identical. Equal values may be shown once. Inconclusive results and toxic doses are left out.

This experiment relates to L1210 leukemia ip in BDF1 mice, survival T/C. Kind of experiment: NCI In Vivo Anticancer Drug Screen. Data for tumor model L1210 Leukemia (intraperitoneal) in B6D2F1 (BDF1) mice. Conditions: endpoint: mean survival time, higher = longer survival. In a few lines:
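Survival endpoint. Drug-treated group vs vehicle group, expressed as T divided by C. Tumor passaged by transplantation.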

[1] abbreviates: dose: 100.0 mg/kg/injection, schedule: Q04DX003 (ip), vehicle: saline with Tween-80.
The mark [2] stands for this setting: dose: 200.0 mg/kg/injection, schedule: Q04DX003 (ip), vehicle: saline with Tween-80.
The mark [3] stands for this setting: dose: 400.0 mg/kg/injection, schedule: Q04DX003 (ip), vehicle: saline with Tween-80.
Setting [4] is: dose: 100.0 mg/kg/injection, schedule: Q01DX001 (ip), vehicle: saline.
The mark [5] stands for this setting: dose: 200.0 mg/kg/injection, schedule: Q01DX001 (ip), vehicle: saline.
Where [6] appears, read: dose: 400.0 mg/kg/injection, schedule: Q01DX001 (ip), vehicle: saline.
Setting [7] is: dose: 25.0 mg/kg/injection, schedule: Q01DX009 (ip), vehicle: saline with Tween-80.
[8] abbreviates: dose: 25.0 mg/kg/injection, schedule: Q04DX003 (ip), vehicle: saline with Tween-80.
[9] abbreviates: dose: 50.0 mg/kg/injection, schedule: Q01DX009 (ip), vehicle: saline with Tween-80.
Where [10] appears, read: dose: 100.0 mg/kg/injection, schedule: Q01DX009 (ip), vehicle: saline with Tween-80.
[11] abbreviates: dose: 100.0 mg/kg/injection, schedule: Q04DX003 (ip), vehicle: saline.
Setting [12] is: dose: 200.0 mg/kg/injection, schedule: Q01DX009 (ip), vehicle: saline with Tween-80.
The mark [13] stands for this setting: dose: 200.0 mg/kg/injection, schedule: Q04DX003 (ip), vehicle: saline.
The mark [14] stands for this setting: dose: 400.0 mg/kg/injection, schedule: Q01DX009 (ip), vehicle: saline with Tween-80.
Setting [15] is: dose: 100.0 mg/kg/injection, schedule: Q04DX002 (ip), vehicle: Klucel (hydroxypropylcellulose) (HPC).
The mark [16] stands for this setting: dose: 200.0 mg/kg/injection, schedule: Q04DX002 (ip), vehicle: Klucel (hydroxypropylcellulose) (HPC).
Where [17] appears, read: dose: 400.0 mg/kg/injection, schedule: Q04DX002 (ip), vehicle: Klucel (hydroxypropylcellulose) (HPC).

In the case of `CC(=O)Nc1ccc(S(=O)(=O)NC(=O)NCCC(C)C)cc1`, the T/C was 94 % of control under setting [1], 102 % of control under setting [2] and 102 % of control under setting [3].

On to `CCOC(=O)C(C(C)=O)C(c1ccc(O)cc1)C(C(C)=O)C(=O)OCC` (centres undefined), for which the T/C was 93 % of control under setting [4], 86 % of control under setting [5] and 87 % of control under setting [6].

For the compound `O=C1NC2C(NC(=O)N2Cl)N1Cl` (centres undefined), the T/C was 97 % of control (dose: 12.5 mg/kg/injection, schedule: Q01DX009 (ip), vehicle: saline with Tween-80); 100 % of control under setting [7]; 94 % of control under setting [8]; 92 % of control (dose: 40.0 mg/kg/injection, schedule: Q01DX Z (ip), vehicle: carboxymethylcellulose (CMC)); 94 % of control under setting [9]; 95 % of control (dose: 50.0 mg/kg/injection, schedule: Q04DX003 (ip), vehicle: saline with Tween-80). Moreover, the T/C is 94 % of control under setting [10] and 105 % of control under setting [1].

As for `CCCCCCCCCC(=O)CCCC`, the T/C is 122 % of control under setting [10]; 94 % of control under setting [11]; 96 % of control under setting [12]; 98 % of control under setting [13]; 104 % of control under setting [14]; 94 % of control (dose: 400.0 mg/kg/injection, schedule: Q04DX003 (ip), vehicle: saline).

Turning to `CCOC(=O)N1C(=O)NC(=O)C1c1ccc(Cl)cc1` (centres undefined), the T/C (dose: 50.0 mg/kg/injection, schedule: Q01DX001 (ip), vehicle: saline) was 96 % of control; the T/C under setting [4] was 112 % of control; the T/C under setting [5] was 100 % of control.

As for `CN=C(NC)N/N=C(C)\C=N\NC(=NC)NC`, the T/C is, setting by setting: (dose: 1.0 mg/kg/injection, schedule: Q01DX Z (ip), vehicle: methylcellulose (MC)) 103 % of control; (dose: 2.0 mg/kg/injection, schedule: Q01DX Z (ip), vehicle: methylcellulose (MC)) 92 % of control; (dose: 4.0 mg/kg/injection, schedule: Q01DX Z (ip), vehicle: methylcellulose (MC)) 101 % of control; (dose: 8.0 mg/kg/injection, schedule: Q01DX Z (ip), vehicle: methylcellulose (MC)) 104 % of control; (dose: 15.0 mg/kg/injection, schedule: Q01DX Z (ip), vehicle: saline) 107 % of control; (dose: 15.0 mg/kg/injection, schedule: Q01DX Z (oral), vehicle: methylcellulose (MC)) 104 % of control. In addition, the T/C is, setting by setting: (dose: 30.0 mg/kg/injection, schedule: Q01DX Z (ip), vehicle: methylcellulose (MC)) 160 % of control; (dose: 30.0 mg/kg/injection, schedule: Q01DX Z (ip), vehicle: saline) 97 % of control; (dose: 30.0 mg/kg/injection, schedule: Q01DX Z (oral), vehicle: methylcellulose (MC)) 96 % of control; (dose: 60.0 mg/kg/injection, schedule: Q01DX Z (ip), vehicle: saline) 103 % of control; (dose: 60.0 mg/kg/injection, schedule: Q01DX Z (oral), vehicle: methylcellulose (MC)) 107 % of control; (dose: 120.0 mg/kg/injection, schedule: Q01DX Z (ip), vehicle: saline) 96 % of control. In addition, the T/C was 104 % of control (dose: 120.0 mg/kg/injection, schedule: Q01DX Z (oral), vehicle: methylcellulose (MC)); 100 % of control (dose: 240.0 mg/kg/injection, schedule: Q01DX Z (ip), vehicle: saline); 95 % of control (dose: 240.0 mg/kg/injection, schedule: Q01DX Z (oral), vehicle: methylcellulose (MC)); 94 % of control (dose: 480.0 mg/kg/injection, schedule: Q01DX009 (oral), vehicle: saline); 96 % of control (dose: 480.0 mg/kg/injection, schedule: Q01DX Z (oral), vehicle: methylcellulose (MC)); 94 % of control (dose: 960.0 mg/kg/injection, schedule: Q01DX009 (oral), vehicle: saline).

Take `CCCCCCCC/C=C\CCCCCCCC(=O)O.[Fe]`: the T/C is, setting by setting: under setting [4], 93 % of control; under setting [5], 95 % of control; under setting [6], 90 % of control.

`O=C1CCSC(=O)N1SC(Cl)(Cl)Cl`: the T/C by setting is: (dose: 6.0 mg/kg/injection, schedule: Q04DX003 (ip), vehicle: saline with Tween-80) 88 % of control; (dose: 12.0 mg/kg/injection, schedule: Q01DX009 (ip), vehicle: saline with Tween-80) 94 % of control; (dose: 12.0 mg/kg/injection, schedule: Q04DX003 (ip), vehicle: saline with Tween-80) 101 % of control; under setting [7], 92 % of control; under setting [8], 97 % of control and 101 % of control; under setting [9], 93 % of control and 90 % of control. Further, the T/C was 98 % of control under setting [11] and 93 % of control under setting [13].

On to `O=c1cc(CO)occ1O`, for which the T/C runs as follows: under setting [10], 93 % of control; (dose: 100.0 mg/kg/injection, schedule: Q01DX009 (ip), vehicle: saline) 92 % of control; under setting [12], 90 % of control; (dose: 200.0 mg/kg/injection, schedule: Q01DX009 (ip), vehicle: saline) 106 % of control; under setting [14], 92 % of control; (dose: 400.0 mg/kg/injection, schedule: Q01DX009 (ip), vehicle: saline) 97 % of control.

Regarding `COc1cc(C)c(CN(C)C)c(OC)c1`, the T/C (dose: 27.0 mg/kg/injection, schedule: Q01DX Z (ip), vehicle: methylcellulose (MC)) was 102 % of control.

As to `CCOc1c[n+](C)c(/C=C/c2ccccc2)s1`, the T/C is, setting by setting: (dose: 5.0 mg/kg/injection, schedule: Q01DX001 (ip), vehicle: carboxymethylcellulose (CMC)) 108 % of control; (dose: 10.0 mg/kg/injection, schedule: Q01DX001 (ip), vehicle: carboxymethylcellulose (CMC)) 97 % of control; (dose: 20.0 mg/kg/injection, schedule: Q01DX001 (ip), vehicle: carboxymethylcellulose (CMC)) 94 % of control; (dose: 40.0 mg/kg/injection, schedule: Q01DX001 (ip), vehicle: carboxymethylcellulose (CMC)) 103 % of control.

Take `O=C(O)C=C(CBr)CBr`: the T/C is 93 % of control (dose: 10.0 mg/kg/injection, schedule: Q01DX001 (ip), vehicle: saline); 94 % of control (dose: 20.0 mg/kg/injection, schedule: Q01DX001 (ip), vehicle: saline); 109 % of control (dose: 40.0 mg/kg/injection, schedule: Q01DX001 (ip), vehicle: saline).

As to `Cc1ccc(Cl)cc1NC(=O)C(C)Oc1ccccc1` (centres undefined), the T/C reads like this: under setting [15], 89 % of control; under setting [16], 89 % of control; under setting [17], 92 % of control.

As to `CC(C)OC(=O)Oc1c(Cl)c(Cl)c(Cl)c(Cl)c1Cl`, the T/C (dose: 100.0 mg/kg/injection, schedule: Q01DX009 (ip), vehicle: Klucel (hydroxypropylcellulose) (HPC)) is 95 % of control; the T/C under setting [15] was 105 % of control; the T/C (dose: 200.0 mg/kg/injection, schedule: Q01DX009 (ip), vehicle: Klucel (hydroxypropylcellulose) (HPC)) was 98 % of control; the T/C under setting [16] is 94 % of control; the T/C under setting [17] was 98 % of control.

As to `C[C@]12C=CC(=O)C=C1CC[C@H]1[C@@H]3C[C@@H](O)[C@](O)(C(=O)CO)[C@@]3(C)C[C@H](O)[C@@]12F`, the T/C (dose: 50.0 mg/kg/injection, schedule: Q04DX003 (sc), vehicle: steriod suspending solution) is 102 % of control; the T/C (dose: 100.0 mg/kg/injection, schedule: Q01DX001 (sc), vehicle: steriod suspending solution) was 105 % of control; the T/C (dose: 100.0 mg/kg/injection, schedule: Q04DX003 (sc), vehicle: steriod suspending solution) was 97 % of control; the T/C (dose: 200.0 mg/kg/injection, schedule: Q01DX001 (sc), vehicle: steriod suspending solution) is 107 % of control; the T/C (dose: 200.0 mg/kg/injection, schedule: Q04DX003 (sc), vehicle: steriod suspending solution) was 106 % of control; the T/C (dose: 400.0 mg/kg/injection, schedule: Q01DX001 (sc), vehicle: steriod suspending solution) is 105 % of control. Moreover, the T/C (dose: 400.0 mg/kg/injection, schedule: Q04DX003 (sc), vehicle: steriod suspending solution) is 110 % of control.

Turning to `O=c1[nH]c(=S)n2ncnc2[nH]1`, the T/C by setting is: under setting [1], 109 % of control; under setting [2], 102 % of control; under setting [3], 95 % of control.

The values above are taken from PubChem BioAssay AID248 (DTP/NCI, 2004).
